Measured values published in patent publication US10183944B2 (Asana Biosciences, LLC, priority 2011, dated 2019).
Where a name gives a salt, the structure may show the parent alone.

Key:
[1] = target: Syk (356-635 amino acids) catalytic domain (Homo sapiens (Human), UniProt P43405); experiment: Inhibition of enzymatic Syk kinase activity (radiometric); format: biochemical; settings: read-out: IC50 Syk
How it was run: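 Radiometric filter-binding format: 32P transfer from γ-32P-ATP onto pG4T, scintillation-counted after acid washes of P81 paper. Syk kinase domain (356-635), 0.035–7.5 ng per reaction, was exposed to compound for 30 minutes at room temperature before a 10-minute, 30° C. reaction with ATP (100 μM stock). Inhibition derived from counts with versus without compound.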

JAK2 = JAK2 (Homo sapiens (Human), UniProt O60674); experiment: Inhibition of enzymatic JAK2 kinase activity (TR-FRET); format: biochemical; settings: read-out: IC50 JAK
Chain of JAK2 (O60674 808-1132): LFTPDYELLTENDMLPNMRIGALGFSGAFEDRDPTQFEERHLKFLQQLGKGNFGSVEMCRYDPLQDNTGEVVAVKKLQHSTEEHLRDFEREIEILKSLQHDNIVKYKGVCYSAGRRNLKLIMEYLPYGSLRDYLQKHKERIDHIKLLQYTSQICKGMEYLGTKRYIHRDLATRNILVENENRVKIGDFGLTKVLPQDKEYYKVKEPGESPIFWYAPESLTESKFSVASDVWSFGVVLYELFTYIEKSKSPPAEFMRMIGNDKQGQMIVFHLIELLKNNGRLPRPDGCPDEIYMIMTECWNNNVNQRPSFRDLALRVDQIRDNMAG
How it was run: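 TR-FRET read-out (Eu antibody donor, Ulight poly Glu-Tyr acceptor, 665/615 nm ratio) after a 60 min RT kinase reaction with ATP, begun following 30 min compound–enzyme preincubation. Stopped by EDTA; inhibition expressed as 100 minus % activity of positive control.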

| SMILES | IC50 [1] [µM] | IC50 (JAK2) [µM] |
| --- | --- | --- |
| O=C(O)C1CC12CCN(c1ccc(Nc3nc(C4CCCCC4)nc4cn[nH]c(=O)c34)cc1)CC2 (centres unmarked) [Example 79, 6-(4-((2-cyclohexyl-5-oxo-5,6-dihydropyrimido[4,5-d]pyridazin-4-yl)amino)phenyl)-6-azaspiro[2.5]octane-1-carboxylic acid] | < 0.05 | < 0.01 |
| COC(=O)c1ccc(-c2nc(Nc3ccc(CN4CCNCC4)cc3)c3c(=O)[nH]ncc3n2)cc1 [Example 2, Methyl 4-(5-oxo-4-(4-(piperazin-1-ylmethyl)phenylamino)-5,6-dihydropyrimido[4,5-d]pyridazin-2-yl)benzoate hydrochloride] | < 0.1 | > 0.1 |
| O=C(O)CN1CCN(CCOc2ccc(Nc3nc(N4CCCCCC4)nc4cn[nH]c(=O)c34)cc2)CC1 [Example 106, 2-(4-(2-(4-((2-(azepan-1-yl)-5-oxo-5,6-dihydropyrimido[4,5-d]pyridazin-4-yl)amino)phenoxy)ethyl)piperazin-1-yl) acetic acid] | < 0.05 | < 0.05 |
| COC1CCN(c2ccc(Nc3nc(N4CCCCCC4)nc4cn[nH]c(=O)c34)cc2)CC1 [Example 288, 2-(azepan-1-yl)-4-((4-(4-methoxypiperidin-1-yl)phenyl)amino) pyrimido[4,5-d]pyridazin-5(6H)-one] | < 0.05 | < 0.05 |
| CCN1CCN(C(=O)COc2ccc(Nc3nc(N4CCC(CC#N)CC4)nc4cn[nH]c(=O)c34)cc2)CC1 [Example 270, 2-(1-(4-((4-(2-(4-ethylpiperazin-1-yl)-2-oxoethoxy)phenyl)amino)-5-oxo-5,6-dihydropyrimido[4,5-d]pyridazin-2-yl)piperidin-4-yl)acetonitrile] | < 0.05 | < 0.05 |
| CC(C)(C(=O)O)N1CCN(c2ccc(Nc3nc(N4CCCCCC4)nc4cn[nH]c(=O)c34)cc2)CC1 [Example 140, 2-(4-(4-((2-(azepan-1-yl)-5-oxo-5,6-dihydropyrimido[4,5-d]pyridazin-4-yl)amino)phenyl)piperazin-1-yl)-2-methylpropanoic acid] | < 0.01 | < 0.01 |
| O=C(O)[C@H]1CO[C@H](COc2ccc(Nc3nc(N4CCCCCC4)nc4cn[nH]c(=O)c34)cc2)CO1 [Example 124, (2R,5S)-5-((4-((2-(azepan-1-yl)-5-oxo-5,6-dihydropyrimido[4,5-d]pyridazin-4-yl)amino)phenoxy)methyl)-1,4-dioxane-2-carboxylic acid] | < 0.01 | < 0.01 |
| O=C(O)CC1CCC(c2ccc(Nc3nc(-c4ccccc4)nc4cn[nH]c(=O)c34)cc2)CC1 (centres unmarked) [Example 87, 2-(4-(4-((5-oxo-2-phenyl-5,6-dihydropyrimido[4,5-d]pyridazin-4-yl)amino)phenyl)cyclohexyl)acetic acid] | < 0.05 | < 0.1 |
| O=c1[nH]ncc2nc(N3CCCCCC3)nc(Nc3ccc(N4CCCC(O)C4)cc3)c12 (centres unmarked) [Example 281, 2-(azepan-1-yl)-4-((4-(3-hydroxypiperidin-1-yl)phenyl)amino) pyrimido[4,5-d]pyridazin-5(6H)-one] | < 0.05 | < 0.01 |
| N#CCC1CCN(c2nc(Nc3ccc(CCO)cc3)c3c(=O)[nH]ncc3n2)CC1 [Example 323, 2-(1-(4-((4-(2-hydroxyethyl)phenyl)amino)-5-oxo-5,6-dihydropyrimido[4,5-d]pyridazin-2-yl)piperidin-4-yl) acetonitrile] | < 0.05 | < 0.05 |
| O=C(O)Cn1nnc(-c2ccc(Nc3nc(N4CCCCCC4)nc4cn[nH]c(=O)c34)cc2)n1 [Example 235, 2-(5-(4-((2-(azepan-1-yl)-5-oxo-5,6-dihydropyrimido[4,5-d]pyridazin-4-yl)amino)phenyl)-2H-tetrazol-2-yl)acetic acid] | < 0.05 | < 0.05 |
| O=C(O)C1CC12CCN(c1ccc(Nc3nc(C4CCCCCC4)nc4cn[nH]c(=O)c34)cc1)CC2 (centres unmarked) [Example 81, 6-(4-((2-cycloheptyl-5-oxo-5,6-dihydropyrimido[4,5-d]pyridazin-4-yl)amino)phenyl)-6-azaspiro[2.5]octane-1-carboxylic acid] | < 0.05 | < 0.01 |
| CN(C)CCOc1ccc(Nc2nc(N3CCCCCC3)nc3cn[nH]c(=O)c23)cc1 [Example 167, 2-(azepan-1-yl)-4-((4-(2-(dimethylamino)ethoxy)phenyl)amino)pyrimido[4,5-d]pyridazin-5(6H)-one] | < 0.05 | < 0.01 |
| O=c1[nH]ncc2nc(-c3ccc(CN4CCOCC4)cc3)nc(Nc3ccc(CN4CCNCC4)cc3)c12 [Example 55, 2-(4-(morpholinomethyl)phenyl)-4-((4-(piperazin-1-ylmethyl)phenyl)amino) pyrimido[4,5-d]pyridazin-5(6H)-one hydrochloride] | > 0.1 | > 0.1 |
| N#CCC1CCN(c2nc(Nc3ccc(OC(F)F)cc3)c3c(=O)[nH]ncc3n2)CC1 [Example 338, 2-(1-(4-((4-(difluoromethoxy)phenyl)amino)-5-oxo-5,6-dihydropyrimido[4,5-d]pyridazin-2-yl)piperidin-4-yl) acetonitrile] | < 0.1 | > 0.1 |
| O=c1[nH]ncc2nc(N3CCCCCC3)nc(Nc3ccc(OCCN4CCNCC4)nc3)c12 [Example 182, 2-(azepan-1-yl)-4-((6-(2-(piperazin-1-yl)ethoxy)pyridin-3-yl)amino)pyrimido[4,5-d]pyridazin-5(6H)-one] | < 0.1 | < 0.01 |
| N#CCC(=O)N1CCN(c2ccc(Nc3nc(N4CCCCCC4)nc4cn[nH]c(=O)c34)cn2)CC1 [Example 234, 3-(4-(5-((2-(azepan-1-yl)-5-oxo-5,6-dihydropyrimido[4,5-d]pyridazin-4-yl)amino)pyridin-2-yl)piperazin-1-yl)-3-oxopropanenitrile] | < 0.05 | < 0.01 |
| CC(C)(C(=O)O)C1CCN(c2ccc(Nc3nc(-c4ccccc4)nc4cn[nH]c(=O)c34)cc2)CC1 [Example 143, 2-methyl-2-(1-(4-((5-oxo-2-phenyl-5,6-dihydropyrimido[4,5-d]pyridazin-4-yl)amino)phenyl)piperidin-4-yl)propanoic acid] | < 0.05 | > 0.1 |
| O=c1[nH]ncc2nc(N3CCCCCC3)nc(Nc3ccc(CCN4CCNCC4)cc3)c12 [Example 198, 2-(azepan-1-yl)-4-((4-(2-(piperazin-1-yl)ethyl)phenyl)amino)pyrimido[4,5-d]pyridazin-5(6H)-one] | < 0.01 | < 0.01 |
| O=c1[nH]ncc2nc(-c3ccccc3)nc(Nc3ccc(CN4CCC5(CC4)COC5)cc3)c12 [Example 23, 4-(4-(2-oxa-7-azaspiro[3.5]nonan-7-ylmethyl)phenylamino)-2-phenylpyrimido[4,5-d]pyridazin-5(6H)-one] | < 0.05 | < 0.1 |
| CC1CCN(c2nc(Nc3ccc(OCCN4CCNCC4)cc3)c3c(=O)[nH]ncc3n2)CC1 [Example 156, 2-(4-methylpiperidin-1-yl)-4-((4-(2-(piperazin-1-yl)ethoxy)phenyl)amino) pyrimido[4,5-d]pyridazin-5(6H)-one hydrochloride] | < 0.05 | < 0.1 |
| N#CCC1CCN(c2nc(Nc3ccc(OCCN4CCNCC4)cc3)c3c(=O)[nH]ncc3n2)CC1 [Example 150, 2-(1-(5-oxo-4-((4-(2-(piperazin-1-yl)ethoxy)phenyl)amino)-5,6-dihydropyrimido[4,5-d]pyridazin-2-yl)piperidin-4-yl)acetonitrile] | < 0.05 | > 0.1 |
| O=c1[nH]ncc2nc(N3CCCCCC3)nc(Nc3ccc(CCO)cc3)c12 [Example 322, 2-(azepan-1-yl)-4-((4-(2-hydroxyethyl)phenyl)amino)pyrimido[4,5-d]pyridazin-5(6H)-one] | < 0.05 | < 0.01 |
| N#CCC1CCN(c2nc(Nc3ccc(N4CCCC(O)C4)cc3)c3c(=O)[nH]ncc3n2)CC1 (centres unmarked) [Example 282, 2-(1-(4-((4-(3-hydroxypiperidin-1-yl)phenyl)amino)-5-oxo-5,6-dihydropyrimido[4,5-d]pyridazin-2-yl)piperidin-4-yl)acetonitrile] | < 0.05 | < 0.01 |
| CC(C)(O)C(=O)N1CCN(Cc2ccc(Nc3nc(N4CCCCCC4)nc4cn[nH]c(=O)c34)cc2)CC1 [Example 84, 2-(azepan-1-yl)-4-((4-((4-(2-hydroxy-2-methylpropanoyl)piperazin-1-yl)methyl)phenyl)amino)pyrimido[4,5-d]pyridazin-5(6H)-one] | < 0.05 | < 0.01 |
| N#CCC1CCN(c2nc(Nc3ccc(N4CCC(Cc5nn[nH]n5)CC4)nc3)c3c(=O)[nH]ncc3n2)CC1 [Example 253, 2-(1-(4-((6-(4-((2H-tetrazol-5-yl)methyl)piperidin-1-yl)pyridin-3-yl)amino)-5-oxo-5,6-dihydropyrimido[4,5-d]pyridazin-2-yl)piperidin-4-yl) acetonitrile] | < 0.05 | < 0.01 |
| O=c1[nH]ncc2nc(N3CCCCCC3)nc(Nc3ccc(N4CCCC(CCO)C4)cc3)c12 (centres unmarked) [Example 272, 2-(azepan-1-yl)-4-((4-(3-(2-hydroxyethyl)piperidin-1-yl)phenyl)amino) pyrimido[4,5-d]pyridazin-5(6H)-one] | < 0.05 | < 0.01 |
| CC(C)(C#N)C1CCN(c2nc(Nc3ccc(N4CCC(CC(=O)O)CC4)cc3)c3c(=O)[nH]ncc3n2)CC1 [Example 100, 2-(1-(4-((2-(4-(2-cyanopropan-2-yl)piperidin-1-yl)-5-oxo-5,6-dihydropyrimido[4,5-d]pyridazin-4-yl)amino)phenyl)piperidin-4-yl)acetic acid] | < 0.05 | < 0.05 |
